# Measured values published in ChEMBL document CHEMBL1201862, “PubChem BioAssay data set” (2004).
#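 Results reflect a 48-hour exposure of cells in 96-well plates to compound at five concentrations. GI50: concentration for 50% inhibition of growth.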 Active and inactive are the calls of the source. Cut-off read from the data, not from the text of the source: active = GI50 up to about 1.1 µM and inactive = higher.
# Columns and labels:
# Assay in all cases: inhibition of tumour cell growth, NCI panel, 48 h
# IGROV-1 = tested on: IGROV-1
# A549 = tested on: A549
# ACHN = tested on: ACHN
# PC-3 = tested on: PC-3
# SF-539 = tested on: SF-539
# 786-0 = tested on: 786-0
# UACC-62 = tested on: UACC-62
# TK-10 = tested on: TK-10
# MDA-MB-231 = tested on: MDA-MB-231
# SK-MEL-2 = tested on: SK-MEL-2
# NCI-H522 = tested on: NCI-H522
# KM12 = tested on: KM12
# MOLT-4 = tested on: MOLT-4
# A498 = tested on: A498
# HCC 2998 = tested on: HCC 2998
# SK-MEL-28 = tested on: SK-MEL-28
# HT-29 = tested on: HT-29
# SW-620 = tested on: SW-620
# Hs-578T = tested on: Hs-578T
# SN12C = tested on: SN12C
SMILES,GI50 (IGROV-1),GI50 (A549),GI50 (ACHN),GI50 (PC-3),GI50 (SF-539),GI50 (786-0),GI50 (UACC-62),GI50 (TK-10),GI50 (MDA-MB-231),GI50 (SK-MEL-2),GI50 (NCI-H522),GI50 (KM12),GI50 (MOLT-4),GI50 (A498),GI50 (HCC 2998),GI50 (SK-MEL-28),GI50 (HT-29),GI50 (SW-620),GI50 (Hs-578T),GI50 (SN12C)
N#Cc1c(-c2ccccc2)c(/N=N/c2ccc(F)cc2)c(=O)n2c1[nH]c1ccccc12,2.69 µM (inactive),3.08 µM (inactive),5.64 µM (inactive),3.4 µM (inactive),10.9 µM (inactive),3.65 µM (inactive),4.82 µM (inactive),5.57 µM (inactive),5.21 µM (inactive),18.2 µM (inactive),2.18 µM (inactive),3.15 µM (inactive),2.3 µM (inactive),8.02 µM (inactive),6.24 µM (inactive),8.39 µM (inactive),2.92 µM (inactive),4.28 µM (inactive),4.43 µM (inactive),1.84 µM (inactive)
CC(=O)O[C@@H]1[C@H]2O[C@H]2[C@H]2O[C@@]2(COC(=O)c2ccccc2)[C@H]1OC(C)=O,35.8 µM (inactive),> 100 µM (inactive),16.9 µM (inactive),> 100 µM (inactive),> 100 µM (inactive),> 100 µM (inactive),> 100 µM (inactive),> 100 µM (inactive),> 100 µM (inactive),> 100 µM (inactive),> 100 µM (inactive),> 100 µM (inactive),32.1 µM (inactive),> 100 µM (inactive),> 100 µM (inactive),> 100 µM (inactive),> 100 µM (inactive),> 100 µM (inactive),> 100 µM (inactive),> 100 µM (inactive)
CCCCCCCCCCCCCCCCCCNC(=O)OCC(CNS(=O)(=O)CCC[n+]1cccc2ccccc21)COC (stereo not given),1.17 µM (inactive),1.47 µM (inactive),6.75 µM (inactive),1.76 µM (inactive),2.01 µM (inactive),3.45 µM (inactive),1.96 µM (inactive),3.4 µM (inactive),1.82 µM (inactive),1.9 µM (inactive),1.02 µM (active),1.84 µM (inactive),1.11 µM (active),10.9 µM (inactive),1.34 µM (inactive),4.74 µM (inactive),0.565 µM (active),2.16 µM (inactive),2 µM (inactive),1.56 µM (inactive)
COc1ccc(Nc2nc3cc(C(F)(F)F)ccc3nc2C(=O)O)cc1OC,36.5 µM (inactive),41.3 µM (inactive),26.7 µM (inactive),36.9 µM (inactive),23.3 µM (inactive),31 µM (inactive),23.7 µM (inactive),34.4 µM (inactive),29 µM (inactive),11.1 µM (inactive),30.4 µM (inactive),27.8 µM (inactive),20.1 µM (inactive),30.7 µM (inactive),35.7 µM (inactive),47.5 µM (inactive),40.2 µM (inactive),47.2 µM (inactive),52.2 µM (inactive),21.5 µM (inactive)
Cc1nc2c(nc1C)-c1[nH]c3c(c1C(=O)C2=O)CCCC3=O,2.55 µM (inactive),3.87 µM (inactive),2.64 µM (inactive),4.25 µM (inactive),1.68 µM (inactive),2.54 µM (inactive),1.71 µM (inactive),17.5 µM (inactive),1.59 µM (inactive),1.79 µM (inactive),2.1 µM (inactive),1.95 µM (inactive),2.23 µM (inactive),8.3 µM (inactive),2.08 µM (inactive),1.71 µM (inactive),5.74 µM (inactive),1.95 µM (inactive),3.66 µM (inactive),1.77 µM (inactive)
N#Cc1ccc(NC(=O)C(CC(=O)OCc2ccccc2)NC(=O)OCc2ccccc2)cc1 (stereo not given),> 10 µM (inactive),> 10 µM (inactive),> 10 µM (inactive),> 10 µM (inactive),> 10 µM (inactive),> 10 µM (inactive),> 10 µM (inactive),> 10 µM (inactive),> 10 µM (inactive),> 100 µM (inactive),> 10 µM (inactive),> 10 µM (inactive),> 10 µM (inactive),> 10 µM (inactive),93.3 µM (inactive),> 10 µM (inactive),> 10 µM (inactive),> 10 µM (inactive),> 10 µM (inactive),> 10 µM (inactive)
c1ccc(-c2cc(C3CO3)c3ccccc3n2)cc1 (stereo not given),17.9 µM (inactive),20.1 µM (inactive),18.4 µM (inactive),19.5 µM (inactive),21.2 µM (inactive),15.5 µM (inactive),18.5 µM (inactive),21.6 µM (inactive),23.3 µM (inactive),18.4 µM (inactive),3.99 µM (inactive),17.5 µM (inactive),23.7 µM (inactive),19.7 µM (inactive),20 µM (inactive),38.5 µM (inactive),19.4 µM (inactive),27.9 µM (inactive),29.3 µM (inactive),16.3 µM (inactive)
C=CC(c1ccccc1)[C@@]1(OC(C)=O)C(=O)C(=O)OC1C1COC(C)(C)O1 (stereo not given in full),15.3 µM (inactive),18 µM (inactive),5.78 µM (inactive),10.9 µM (inactive),10.4 µM (inactive),10.4 µM (inactive),14.1 µM (inactive),14.1 µM (inactive),14.4 µM (inactive),16.4 µM (inactive),3.77 µM (inactive),15.2 µM (inactive),3.7 µM (inactive),19.7 µM (inactive),17.2 µM (inactive),8.32 µM (inactive),15.1 µM (inactive),8.13 µM (inactive),22.9 µM (inactive),7.66 µM (inactive)
C=CCN1C(=O)/C(=C/c2ccco2)N=C1SC/C=C/C,51.2 µM (inactive),49.3 µM (inactive),35.4 µM (inactive),39 µM (inactive),> 100 µM (inactive),28.2 µM (inactive),25.9 µM (inactive),> 100 µM (inactive),67.9 µM (inactive),29.4 µM (inactive),34 µM (inactive),39.6 µM (inactive),19.5 µM (inactive),43.3 µM (inactive),93.8 µM (inactive),46.1 µM (inactive),40.4 µM (inactive),43.9 µM (inactive),53.8 µM (inactive),23.5 µM (inactive)
COc1cc(/C=C/C=C2\CC/C(=C\C=C\c3ccc(O)c(OC)c3)C2=O)ccc1O,> 100 µM (inactive),> 100 µM (inactive),> 100 µM (inactive),> 100 µM (inactive),> 100 µM (inactive),> 100 µM (inactive),> 100 µM (inactive),> 100 µM (inactive),> 59.7 µM (inactive),> 100 µM (inactive),1.45 µM (inactive),> 100 µM (inactive),1.02 µM (active),> 100 µM (inactive),> 100 µM (inactive),> 100 µM (inactive),> 100 µM (inactive),> 100 µM (inactive),> 100 µM (inactive),> 100 µM (inactive)
